± gives the expanded uncertainty stated by the source.
Experiment: wn = mass fraction of the nth substance listed
Conditions: Liquid, Pulse-echo method, w2 = 0.49

Q: What does the source list for CC(F)(F)F [1,1,1-trifluoroethane] + FC(F)C(F)(F)F?
A: speed of sound (253.22 K, 1160 kPa): 598.8 ± 1.3 m/s; speed of sound (253.22 K, 1260 kPa): 599.7 ± 1.3 m/s; speed of sound (253.22 K, 1380 kPa): 600.9 ± 1.3 m/s; speed of sound (253.22 K, 1500 kPa): 602 ± 1.3 m/s; speed of sound (253.22 K, 1630 kPa): 603.1 ± 1.3 m/s; speed of sound (253.22 K, 1750 kPa): 604.2 ± 1.3 m/s; speed of sound (253.22 K, 2010 kPa): 606.4 ± 1.3 m/s; speed of sound (253.22 K, 2250 kPa): 608.7 ± 1.3 m/s; speed of sound (253.22 K, 2510 kPa): 610.9 ± 1.3 m/s; speed of sound (253.22 K, 2750 kPa): 613.1 ± 1.3 m/s; speed of sound (253.22 K, 3010 kPa): 615.1 ± 1.3 m/s; speed of sound (253.22 K, 3500 kPa): 619.3 ± 1.3 m/s; speed of sound (253.22 K, 4000 kPa): 623.7 ± 1.3 m/s; speed of sound (253.22 K, 4500 kPa): 627.9 ± 1.3 m/s; speed of sound (253.22 K, 5000 kPa): 631.9 ± 1.3 m/s; speed of sound (253.22 K, 6010 kPa): 639.9 ± 1.3 m/s; speed of sound (253.22 K, 7010 kPa): 647.5 ± 1.3 m/s; speed of sound (253.22 K, 8000 kPa): 655.1 ± 1.3 m/s; speed of sound (253.22 K, 9000 kPa): 662.6 ± 1.3 m/s; speed of sound (253.22 K, 10000 kPa): 669.8 ± 1.3 m/s; speed of sound (253.22 K, 12000 kPa): 683.6 ± 1.3 m/s; speed of sound (253.22 K, 14000 kPa): 697 ± 1.3 m/s; speed of sound (253.22 K, 16010 kPa): 709.7 ± 1.3 m/s; speed of sound (253.22 K, 18000 kPa): 722.2 ± 1.3 m/s; speed of sound (253.22 K, 20000 kPa): 734.3 ± 1.3 m/s; speed of sound (253.22 K, 23000 kPa): 751.6 ± 1.3 m/s; speed of sound (253.22 K, 26000 kPa): 768.1 ± 1.3 m/s; speed of sound (253.22 K, 29010 kPa): 783.7 ± 1.3 m/s; speed of sound (253.22 K, 32000 kPa): 798.4 ± 1.3 m/s; speed of sound (253.22 K, 35000 kPa): 812.8 ± 1.3 m/s; speed of sound (253.22 K, 40000 kPa): 835.8 ± 1.3 m/s; speed of sound (253.22 K, 45000 kPa): 857.8 ± 1.3 m/s; speed of sound (253.22 K, 50000 kPa): 878.9 ± 1.3 m/s; speed of sound (253.22 K, 55000 kPa): 899 ± 1.3 m/s; speed of sound (253.22 K, 60000 kPa): 918.8 ± 1.3 m/s; speed of sound (253.22 K, 65000 kPa): 937.2 ± 1.3 m/s; speed of sound (258.15 K, 1150 kPa): 574.9 ± 1.3 m/s; speed of sound (258.15 K, 1170 kPa): 575.3 ± 1.3 m/s; speed of sound (258.15 K, 1190 kPa): 575.7 ± 1.3 m/s; speed of sound (258.15 K, 1260 kPa): 576.3 ± 1.3 m/s; speed of sound (258.15 K, 1380 kPa): 577.6 ± 1.3 m/s; speed of sound (258.15 K, 1500 kPa): 578.8 ± 1.3 m/s; speed of sound (258.15 K, 1630 kPa): 580 ± 1.3 m/s; speed of sound (258.15 K, 1750 kPa): 581.2 ± 1.3 m/s; speed of sound (258.15 K, 2010 kPa): 583.4 ± 1.3 m/s; speed of sound (258.15 K, 2250 kPa): 585.8 ± 1.3 m/s; speed of sound (258.15 K, 2510 kPa): 588.1 ± 1.3 m/s; speed of sound (258.15 K, 2750 kPa): 590.3 ± 1.3 m/s; speed of sound (258.15 K, 3010 kPa): 592.6 ± 1.3 m/s; speed of sound (258.15 K, 3500 kPa): 597.1 ± 1.3 m/s; speed of sound (258.15 K, 4000 kPa): 601.5 ± 1.3 m/s; speed of sound (258.15 K, 4500 kPa): 606.1 ± 1.3 m/s; speed of sound (258.15 K, 5000 kPa): 610.4 ± 1.3 m/s; speed of sound (258.15 K, 6010 kPa): 618.6 ± 1.3 m/s; speed of sound (258.15 K, 7010 kPa): 626.7 ± 1.3 m/s; speed of sound (258.15 K, 8000 kPa): 634.7 ± 1.3 m/s; speed of sound (258.15 K, 9000 kPa): 642.2 ± 1.3 m/s; speed of sound (258.15 K, 10000 kPa): 649.7 ± 1.3 m/s; speed of sound (258.15 K, 12000 kPa): 664 ± 1.3 m/s; speed of sound (258.15 K, 14000 kPa): 677.9 ± 1.3 m/s; speed of sound (258.15 K, 16010 kPa): 691.3 ± 1.3 m/s; speed of sound (258.15 K, 18000 kPa): 704.1 ± 1.3 m/s; speed of sound (258.15 K, 20000 kPa): 716.5 ± 1.3 m/s; speed of sound (258.15 K, 23000 kPa): 734.2 ± 1.3 m/s; speed of sound (258.15 K, 26000 kPa): 751.1 ± 1.3 m/s; speed of sound (258.15 K, 29010 kPa): 767.3 ± 1.3 m/s; speed of sound (258.15 K, 32000 kPa): 782.5 ± 1.3 m/s; speed of sound (258.15 K, 35000 kPa): 797.1 ± 1.3 m/s; speed of sound (258.15 K, 40000 kPa): 820.8 ± 1.3 m/s; speed of sound (258.15 K, 45000 kPa): 843.3 ± 1.3 m/s; speed of sound (258.15 K, 50000 kPa): 864.3 ± 1.3 m/s; speed of sound (258.15 K, 55000 kPa): 884.5 ± 1.3 m/s; speed of sound (258.15 K, 60000 kPa): 904.1 ± 1.3 m/s; speed of sound (258.15 K, 65000 kPa): 923.1 ± 1.3 m/s; speed of sound (265.62 K, 1170 kPa): 539.5 ± 1.3 m/s; speed of sound (265.62 K, 1210 kPa): 540.1 ± 1.3 m/s; speed of sound (265.62 K, 1260 kPa): 540.5 ± 1.3 m/s; speed of sound (265.62 K, 1380 kPa): 541.7 ± 1.3 m/s; speed of sound (265.62 K, 1500 kPa): 543 ± 1.3 m/s; speed of sound (265.62 K, 1630 kPa): 544.3 ± 1.3 m/s; speed of sound (265.62 K, 1750 kPa): 545.7 ± 1.3 m/s; speed of sound (265.62 K, 2010 kPa): 548.3 ± 1.3 m/s; speed of sound (265.62 K, 2250 kPa): 550.8 ± 1.3 m/s; speed of sound (265.62 K, 2510 kPa): 553.3 ± 1.3 m/s; speed of sound (265.62 K, 2750 kPa): 555.9 ± 1.3 m/s; speed of sound (265.62 K, 3010 kPa): 558.4 ± 1.3 m/s; speed of sound (265.62 K, 3500 kPa): 563.3 ± 1.3 m/s; speed of sound (265.62 K, 4000 kPa): 568.3 ± 1.3 m/s; speed of sound (265.62 K, 4500 kPa): 572.9 ± 1.3 m/s; speed of sound (265.62 K, 5000 kPa): 577.7 ± 1.3 m/s; speed of sound (265.62 K, 6010 kPa): 586.7 ± 1.3 m/s; speed of sound (265.62 K, 7010 kPa): 595.3 ± 1.3 m/s; speed of sound (265.62 K, 8000 kPa): 603.7 ± 1.3 m/s; speed of sound (265.62 K, 9000 kPa): 612.1 ± 1.3 m/s; speed of sound (265.62 K, 10000 kPa): 620.3 ± 1.3 m/s; speed of sound (265.62 K, 12000 kPa): 635.3 ± 1.3 m/s

— the NIST ThermoML archive (doi:10.1021/je060291c)
